# Results as given in patent US20140073628A1, “BENZOXAZEPINES ASN INHIBITORS OF P13K/M TOR AND METHODS OF THEIR USE AND MANUFACTURE” (priority 2010, published 2014).
# Target: mTOR/GbL/Raptor (mTORC1) (Homo sapiens, UniProt P42345)
# Assay: mTOR/GbL/Raptor (mTORC1) ELISA assay
# Assay type: biochemical
# Conditions: phosphorylation of 4E-BP1; 0.2 nM mTORC1, 10 μM ATP, 50 nM NHis-tagged 4E-BP1
# Method: mTOR/GbL/Raptor (mTORC1) ELISA Assay
# The measurement of mTORC1 enzyme activity was performed in an ELISA assay format following the phosphorylation of 4E-BP1 protein. All experiments were performed in the 384-well format. Generally, 0.5 μL DMSO containing varying concentrations of the test compound was mixed with 15 μL enzyme solution. Kinase reactions were initiated with the addition of 15 μL of substrates-containing solution. The assay conditions were as follows; 0.2 nM mTORC1, 10 μM ATP and 50 nM NHis-tagged 4E-BP1 in 20 mM Hepes, pH 7.2, 1 mM DTT, 50 mM NaCl, 10 mM MnCl2, 0.02 mg/mL BSA, 0.01% CHAPS, 50 mM β-glycerophosphate. Following an incubation of 120 minutes at ambient temperature, 20 μL of the reaction volume was transferred to a Ni-Chelate-coated 384-well plate. The binding step of the 4E-BP1 protein proceeded for 60 minutes, followed by washing 4 times each with 50 μL of Tris-buffered saline solution (TBS). Anti-phospho-4E-BP1 rabbit-IgG (20 μL, 1:5000) in 5% BSA-TBST (0.2% Tween-20 in TBS) was added and further incubated for 60 minutes. Incubation with a secondary HRP-tagged anti-IgG was similarly performed after washing off the primary antibody (4 washes of 50 μL). Following the final wash step with TBST, 20 μL of SuperSignal ELISA Femto (Pierce Biotechnology) was added and the luminescence measured using an EnVision plate reader.
row,IC50 [nM],Compound
1,≤ 100,"Cc1nc(N)nc(N2CCOc3ccc(-c4cnc5[nH]c(N)nc5c4)cc3C2)c1C(C)C [Compound 46, 6-{4-[2-amino-6-methyl-5-(1-methylethyl)pyrimidin-4-yl]-2,3,4,5-tetrahydro-1,4-benzoxazepin-7-yl}-3H-imidazo[4,5-b]pyridin-2-amine]"
2,500 to 2500,"CCCc1c(C)nc(CN(C)C)nc1N1CCOc2ccc(-c3ccc4nc(C)[nH]c4c3)cc2C1 [Compound 32, N,N-dimethyl-1-{4-methyl-6-[7-(2-methyl-1H-benzimidazol-6-yl)-2,3-dihydro-1,4-benzoxazepin-4(5H)-yl]-5-propylpyrimidin-2-yl}methanamine]"
3,≤ 100,"Cc1nc2cc(-c3ccc4c(c3)CN(c3nc(N)nc(C)c3Cc3ccc(F)cc3)CCO4)ccc2[nH]1 [Compound 39, 5-[(4-fluorophenyl)methyl]-4-methyl-6-[7-(2-methyl-1H-benzimidazol-5-yl)-2,3-dihydro-1,4-benzoxazepin-4(5H)-yl]pyrimidin-2-amine]"
4,≤ 100,"Cc1nc(N)nc(N2CCOc3ccc(-c4ccc5[nH]cnc5c4)cc3C2)c1Cc1ccc(F)cc1 [Compound 36, 4-[7-(1H-benzimidazol-5-yl)-2,3-dihydro-1,4-benzoxazepin-4(5H)-yl]-5-[(4-fluorophenyl)methyl]-6-methylpyrimidin-2-amine]"
5,≤ 100,"CC1(C)CCc2nc(N)nc(N3CCOc4ccc(-c5ccc6[nH]cnc6c5)cc4C3)c2C1 [Compound 27, 4-[7-(1H-benzimidazol-5-yl)-2,3-dihydro-1,4-benzoxazepin-4(5H)-yl]-6,6-dimethyl-5,6,7,8-tetrahydroquinazolin-2-amine]"
6,≤ 100,"CC1(C)CCc2nc(N)nc(N3CCOc4ccc(-c5cnc6[nH]cnc6c5)cc4C3)c2C1 [Compound 45, 4-[7-(3H-imidazo[4,5-b]pyridin-6-yl)-2,3-dihydro-1,4-benzoxazepin-4(5H)-yl]-6,6-dimethyl-5,6,7,8-tetrahydroquinazolin-2-amine]"
7,≤ 100,"Cc1nc2cc(-c3ccc4c(c3)CN(c3nc(N)nc(C)c3Cc3ccc(F)cc3)CCO4)cnc2[nH]1 [Compound 48, 5-[(4-fluorophenyl)methyl]-4-methyl-6-[7-(2-methyl-3H-imidazo[4,5-b]pyridin-6-yl)-2,3-dihydro-1,4-benzoxazepin-4(5H)-yl]pyrimidin-2-amine]"
8,≤ 100,"Cc1nc2cc(-c3ccc4c(c3)CN(c3nc(N)nc(C)c3C(C)C)CCO4)ccc2[nH]1 [Compound 41, 4-methyl-6-[7-(2-methyl-1H-benzimidazol-5-yl)-2,3-dihydro-1,4-benzoxazepin-4(5H)-yl]-5-(1-methylethyl)pyrimidin-2-amine]"
9,≤ 100,"Cc1nc(N)nc(N2CCOc3ccc(-c4cnc5[nH]cnc5c4)cc3C2)c1Cc1ccc(F)cc1 [Compound 47, 5-[(4-fluorophenyl)methyl]-4-[7-(3H-imidazo[4,5-b]pyridin-6-yl)-2,3-dihydro-1,4-benzoxazepin-4(5H)-yl]-6-methylpyrimidin-2-amine]"
10,≤ 100,"CCNc1nc2cc(-c3ccc4c(c3)CN(c3nc(N)nc(C)c3C(C)C)CCO4)ccc2[nH]1 [Compound 42, 5-{4-[2-amino-6-methyl-5-(1-methylethyl)pyrimidin-4-yl]-2,3,4,5-tetrahydro-1,4-benzoxazepin-7-yl}-N-ethyl-1H-benzimidazol-2-amine]"
11,≤ 100,"Cc1nc2cc(-c3ccc4c(c3)CN(c3nc(N)nc5c3CC(C)(C)CC5)CCO4)ccc2[nH]1 [Compound 29, 6,6-dimethyl-4-[7-(2-methyl-1H-benzimidazol-5-yl)-2,3-dihydro-1,4-benzoxazepin-4(5H)-yl]-5,6,7,8-tetrahydroquinazolin-2-amine]"
12,≤ 100,"CCNc1nc(C)c(Cc2ccc(F)cc2)c(N2CCOc3ccc(-c4ccc5[nH]c(C)nc5c4)cc3C2)n1 [Compound 12, N-ethyl-5-[(4-fluorophenyl)methyl]-4-methyl-6-[7-(2-methyl-1H-benzimidazol-5-yl)-2,3-dihydro-1,4-benzoxazepin-4(5H)-yl]pyrimidin-2-amine]"

# Second part, the compound before the results:
row,Compound,IC50 [nM]
1,"Cc1nc2ncc(-c3ccc4c(c3)CN(c3nc(N)nc5c3CC(C)(C)CC5)CCO4)cc2[nH]1 [Compound 44, 6,6-dimethyl-4-[7-(2-methyl-1H-imidazo[4,5-b]pyridin-6-yl)-2,3-dihydro-1,4-benzoxazepin-4(5H)-yl]-5,6,7,8-tetrahydroquinazolin-2-amine]",≤ 100
2,"Cc1nc2cc(-c3ccc4c(c3)CN(c3nc(CN5CCCC5)nc(C)c3C(C)C)CCO4)ccc2[nH]1 [Compound 20, 7-(2-methyl-1H-benzimidazol-5-yl)-4-[6-methyl-5-(1-methylethyl)-2-(pyrrolidin-1-ylmethyl)pyrimidin-4-yl]-2,3,4,5-tetrahydro-1,4-benzoxazepine]",100 to 500
3,"CCN(CC)Cc1nc(C)c(C(C)C)c(N2CCOc3ccc(-c4ccc5nc(C)[nH]c5c4)cc3C2)n1 [Compound 3, N-ethyl-N-({4-methyl-6-[7-(2-methyl-1H-benzimidazol-5-yl)-2,3-dihydro-1,4-benzoxazepin-4(5H)-yl]-5-(1-methylethyl)pyrimidin-2-yl}methyl)ethanamine]",100 to 500
4,"Cc1nc2cc(-c3ccc4c(c3)CN(c3nc(CN(C)C)nc(C)c3Br)CCO4)ccc2[nH]1 [Compound 30, 1-{5-bromo-4-methyl-6-[7-(2-methyl-1H-benzimidazol-5-yl)-2,3-dihydro-1,4-benzoxazepin-4(5H)-yl]pyrimidin-2-yl}-N,N-dimethylmethanamine]",500 to 2500
5,"Cc1nc2cc(-c3ccc4c(c3)CN(c3nc(CN(C)C)nc(C)c3Cl)CCO4)ccc2[nH]1 [Compound 31, 1-{5-chloro-4-methyl-6-[7-(2-methyl-1H-benzimidazol-5-yl)-2,3-dihydro-1,4-benzoxazepin-4(5H)-yl]pyrimidin-2-yl}-N,N-dimethylmethanamine]",500 to 2500
6,"Cc1nc2cc(-c3ccc4c(c3)CN(c3nc(C(C)N)nc5c3CC(C)(C)CC5)CCO4)ccc2[nH]1 (centres unmarked) [Compound 24, 1-{6,6-dimethyl-4-[7-(2-methyl-1H-benzimidazol-5-yl)-2,3-dihydro-1,4-benzoxazepin-4(5H)-yl]-5,6,7,8-tetrahydroquinazolin-2-yl}ethanamine]",≤ 100
7,"COc1ccc(-c2ccc3c(c2)CN(c2nc(N)nc(C)c2C(C)C)CCO3)cc1NS(C)(=O)=O [Compound 16, N-[5-{4-[2-amino-6-methyl-5-(1-methylethyl)pyrimidin-4-yl]-2,3,4,5-tetrahydro-1,4-benzoxazepin-7-yl}-2-(methyloxy)phenyl]methanesulfonamide]",≤ 100
8,"COCCc1c(C)nc(CN(C)C)nc1N1CCOc2ccc(-c3ccc4nc(C)[nH]c4c3)cc2C1 [Compound 1, N,N-dimethyl-1-{4-methyl-6-[7-(2-methyl-1H-benzimidazol-6-yl)-2,3-dihydro-1,4-benzoxazepin-4(5H)-yl]-5-[2-(methyloxy)ethyl]pyrimidin-2-yl}methanamine]",500 to 2500
9,"CC(=O)NCc1nc2c(c(N3CCOc4ccc(-c5ccc6[nH]c(C)nc6c5)cc4C3)n1)CC(C)(C)CC2 [Compound 26, N-({6,6-dimethyl-4-[7-(2-methyl-1H-benzimidazol-5-yl)-2,3-dihydro-1,4-benzoxazepin-4(5H)-yl]-5,6,7,8-tetrahydroquinazolin-2-yl}methyl)acetamide]",≤ 100
10,"Cc1nc2ccc(-c3ccc4c(c3)CN(c3nc(CO)nc(C)c3C(C)C)CCO4)cc2[nH]1 [Compound 5, {4-methyl-6-[7-(2-methyl-1H-benzimidazol-5-yl)-2,3-dihydro-1,4-benzoxazepin-4(5H)-yl]-5-(1-methylethyl)pyrimidin-2-yl}methanol]",≤ 100
11,"Cc1nc2cc(-c3ccc4c(c3)CN(c3nc(CN(C)C)nc(C)c3CC(C)C)CCO4)ccc2[nH]1 [Compound 23, N,N-dimethyl-1-{4-methyl-6-[7-(2-methyl-1H-benzimidazol-5-yl)-2,3-dihydro-1,4-benzoxazepin-4(5H)-yl]-5-(2-methylpropyl)pyrimidin-2-yl}methanamine]",100 to 500
12,"Cc1nc2cc(-c3ccc4c(c3)CN(c3nc(NC5CNC5)nc(C)c3C(C)C)CCO4)ccc2[nH]1 [Compound 15, N-azetidin-3-yl-4-methyl-6-[7-(2-methyl-1H-benzimidazol-5-yl)-2,3-dihydro-1,4-benzoxazepin-4(5H)-yl]-5-(1-methylethyl)pyrimidin-2-amine]",≤ 100
13,"Cc1nc2cc(-c3ccc4c(c3)CN(c3nc(CNCCF)nc(C)c3C(C)C)CCO4)ccc2[nH]1 [Compound 34, 2-fluoro-N-({4-methyl-6-[7-(2-methyl-1H-benzimidazol-5-yl)-2,3-dihydro-1,4-benzoxazepin-4(5H)-yl]-5-(1-methylethyl)pyrimidin-2-yl}methyl)ethanamine]",≤ 100
14,"COc1ccc2c(N3CCOc4ccc(-c5ccc6[nH]c(C)nc6c5)cc4C3)nc(CN(C)C)nc2c1 [Compound 38, N,N-dimethyl-1-{4-[7-(2-methyl-1H-benzimidazol-5-yl)-2,3-dihydro-1,4-benzoxazepin-4(5H)-yl]-7-(methyloxy)quinazolin-2-yl}methanamine]",500 to 2500
